Experimental data from patent US20020193850A1, “Use of photodynamic therapy to treat prostatic tissue” (priority 1993, published 2002).
Where two headings read alike, the source gives them in different places. Marks after values point to notes of the source that are not given here.

Columns and labels:
[1] = 1.0 mg/kg, 24 hours after injection
Description: (§1) Animals: Adult mongrel dogs were used in all experiments. Dogs were housed 1/cage and given water and canine chow (Purina Chow, Ralston Purina Corp.) ad libitum.
(§2) Photosensitive composition: The photosensitizer, tin ethyl etiopurpurin was used. The photosensitizer was administered in anesthetized (xylazine/ketamine) dogs as an emulsion via antecubital vein 24 hours prior to light treatment.
Photosensitizer extraction: The animals were injected with 1.0 mg/kg of the photosensitizer. Twenty-four hours later, prostate and other tissues were removed from euthanized animals. Tissue samples were removed from the periurethral prostate and the more peripheral regions. Additionally, the mucosa of the urethra was dissected and its photosensitizer content determined. Bladder mucosa and muscularis were also removed. Tissue was weighed and homogenized with a biohomogenizer (Biospec Products, Inc., Bartleville, Okla.) in 3% acetic acid. After homogenization, a 3:1 ethyl acetate:glacial acetic acid mixture was added and mixed vigorously. The sample was then frozen at −20° C. for at least two hours after which it was thawed and saturated sodium acetate added. The ethyl acetate layer, containing the photosensitizer, was removed and its concentration determined using absorbance spectrophotometry (Response II spectrophotomer, Gilford, Oberlin, Ohio).

[2] = system: R3327AT prostate tumor; experiment: R3327AT prostate tumor model, photodynamic therapy, tumor growth delay (Example 2); format: in vivo, male Copenhagen rats; details: drug dose 1.5 mg/kg
Description: The R3327AT prostate tumor model was used in male Copenhagen rats which were injected with 1.5 mg/kg body wt. of SnET2 (tin ethyl etiopurpurin Emulsion, (0.94 mg/ml) PDT Pharmaceuticals). Each rat had one flank tumor (R3327AT). After two weeks, the tumors ranged from 1.0 to 1.6 cm in length. Twenty four hours after TEP injection, the tumor area received photodynamic therapy with a light source of a KTP pumped 660 dye laser (PDT Systems). The KTP/660 dye laser was tuned to 660 nm; power density: 200 mw/cm^2; light dose: 0, 200, 300 and 400 Joules. Tumor temperatures were monitored using a 23 gge. hypodermic probe (YSI) placed percutaneously beneath the treated tumor. If needed, the tumors were cooled by a jet of cool air. Tumors were measured and recorded three times per week.
The linear regression of tumor growth (represented as tumor volume) for each rat was plotted. The number of days it took the treated tumors to reach their initial tumor volume at the time of treatment was determined by the intercept with a horizontal line drawn at the mean initial tumor volume for all groups. The mean number of days for each light/drug dose group to reach its initial tumor size is recorded in Table 3 below.

[3] = system: prostatic tissue; experiment: Transurethral photodynamic therapy of the prostate
Description: as §1, §2
Light source and delivery: An LTI 660 dye laser (PDT Systems, Santa Barbara, Calif.) pumped by a KTP/YAG laser (Laserscope, San Jose, Calif.), was used as a light source. Laser light was delivered to the prostate via a 400 micron optical fiber fitted with a 2.0 cm flexible cylindrical diffuser tip (PDT Systems, Inc., Santa Barbara, Calif.).
Tissue Preparation: On removal, the prostates were photographed and then fixed in a 10% buffered formalin solution. After fixation, tissue was sectioned at 5u intervals and stained with H & E. Sections of the urinary bladder were removed and prepared in a similar manner.
Prostate treatment: The animals were injected with 1.0 mg/kg of the photosensitizer. Twenty-four hours after photosensitizer administration the animals were anesthetized with intravenous sodium barbiturate. The animals were intubated and maintained on a respirator during light treatment. They were treated in the dorsolithotomy position. The 2 cm. diffusing tip of the laser fiber was localized in the prostatic urethra under transrectal ultrasound guidance. A Bruel and Kreuger 7.0 megahertz ultrasound scanner with a transrectal probe was used. The laser fiber was placed within a transparent 10F Stamey catheter (TFX Medical, Duluth, Ga.) which was used as a laser fiber carrier. The tip of the catheter was positioned immediately outside the bladder neck. Once positioned, the prostate was treated with 300 (260 mW/cm^2) joules of laser light. The animals were then recovered and returned to their cages, Indwelling catheters were not used after treatment.

[4] = system: R3327AT prostate tumor; experiment: R3327AT prostate tumor model, photodynamic therapy with 659 YAG or 660 Dye laser (Example 3); format: in vivo, male Copenhagen rats; details: 1.5 mg/kg
Description: The R3327AT prostate tumor model was used in male Copenhagen rats which were injected with 1.5 mg/kg body wt. of SnET2 (Tin Ethyl Etiopurpurin Emulsion, PDT Pharmaceuticals). Each rat had one flank tumor (R3327AT). After two weeks, the tumors ranged from 1.0 to 1.6 cm in length. Twenty four hours (+/−2 hrs.) after SnET2 injection the tumor area received photodynamic therapy using either a 659 YAG or 660 Dye laser fiber optically coupled to a 3-way fiber splitter.
Tumor temperatures were monitored using a 23 gge. hypodermic probe (YSI) placed percutaneously beneath the treated tumor. If needed, the tumors were cooled by a jet of cool air. Tumor diameters were measured and recorded three times per week.
Tumor growth was monitored by calculating volumes from the recorded measurements of tumor width, height and length. The rate of growth is presented as the number of days required for an individual tumor to reach 2, 5 or 10 times initial volume. This method of analysis of tumor growth accounts for variations due to differing initial tumor volume (Gibson and Hilf, Cancer Research, 1990). […] Only at the 200 Joule fluence level was there any significant difference between the YAG and Dye lasers in producing tumor growth delay.

[5] = Mean +/- SD, listed as Photosensitizer, 1 mg/kg

CCOC(=O)C1=Cc2c3nc(cc4nc(cc5[n-]c(cc6[n-]c2c(C)c6CC)c(C)c5CC)C(C)=C4CC)[C@@H](C)[C@]13CC.[Cl-].[Cl-].[Sn] (racemic) [SnET2, tin ethyl etiopurpurin]
Tissue levels of photosensitizer compared with plasma levels [1]: significantly greater than plasma levels | Photosensitizer concentration, Bladder ([1]; Dog 1): 0.2 µg/g | Photosensitizer concentration, Prostate ([1]; Dog 1): 2.1 * ug/g | Photosensitizer concentration, Urethra ([1]; Dog 1): 0.5 µg/g | Photosensitizer concentration, Bladder ([1]; Dog 2): 0.2 µg/g | Photosensitizer concentration, Kidney ([1]; Dog 2): 2.5 µg/g | Photosensitizer concentration, Liver ([1]; Dog 2): 6.7 µg/g | Photosensitizer concentration, Muscle ([1]; Dog 2): 0.3 µg/g | Photosensitizer concentration, Plasma (24-hr) ([1]; Dog 2): 0.1 * * ug/ml | Photosensitizer concentration, Prostate ([1]; Dog 2): 0.8 µg/g | Photosensitizer concentration, Spleen ([1]; Dog 2): 0.8 µg/g | Photosensitizer concentration, Urethra ([1]; Dog 2): 0.3 µg/g | Photosensitizer concentration, Bladder ([1]; Dog 3): 0.2 µg/g | Photosensitizer concentration, Kidney ([1]; Dog 3): 2.9 µg/g | Photosensitizer concentration, Liver ([1]; Dog 3): 6.1 µg/g | Photosensitizer concentration, Muscle ([1]; Dog 3): 0.2 µg/g | Photosensitizer concentration, Plasma (24-hr) ([1]; Dog 3): 0.1 µg/mL | Photosensitizer concentration, Prostate ([1]; Dog 3): 0.9 µg/g | Photosensitizer concentration, Spleen ([1]; Dog 3): 0.8 µg/g | Photosensitizer concentration, Urethra ([1]; Dog 3): 0.2 µg/g | Photosensitizer concentration, Kidney ([1]; Mean +/- SD): 2.7 ± 0.2 µg/g | Photosensitizer concentration, Liver ([1]; Mean +/- SD): 6.7 ± 0.2 µg/g | Photosensitizer concentration, Muscle ([1]; Mean +/- SD): 0.3 ± 0.1 µg/g | Photosensitizer concentration, Plasma (24-hr) ([1]; Mean +/- SD): 0.1 ± 0 µg/mL | Photosensitizer concentration, Spleen ([1]; Mean +/- SD): 0.8 ± 0 µg/g | Photosensitizer concentration, Bladder [1, 5]: 0.2 ± 0 µg/g | Photosensitizer concentration, Prostate [1, 5]: 1.3 ± 0.6 µg/g | Photosensitizer concentration, Urethra [1, 5]: 0.3 ± 0.1 µg/g | # of Days of Growth Delay ([2]; Group II: light dose 0 Joules): 0 days | # of Days of Growth Delay ([2]; Group III: light dose 200 Joules, 660 nm, 200 mw/cm^2): 6.2 ± 1.2 days | # of Days of Growth Delay ([2]; Group IV: light dose 300 Joules, 660 nm, 200 mw/cm^2): 5.8 ± 0.8 days | # of Days of Growth Delay ([2]; Group V: light dose 400 Joules, 660 nm, 200 mw/cm^2): 11.4 ± 3.7 days | Prostate effects of photosensitizer and light ([3]; 1.0 mg/kg, light 24 hours later, 300 joules (260 mW/cm^2), transurethral): showed evidence of a photodynamic effect | Urethral mucosa ([3]; 3 weeks following treatment, 1.0 mg/kg, 300 joules): The urethral mucosa had regenerated | Urethral epithelium ([3]; 48 hours following photodynamic therapy, 1.0 mg/kg, 300 joules): loss of the urethral epithelium | Animal recovery: voiding ([3]; after photodynamic therapy, no indwelling catheter, 1.0 mg/kg, 300 joules): All animals were able to void spontaneously | Animal recovery: hematuria ([3]; after photodynamic therapy, 1.0 mg/kg, 300 joules): Two of the animals developed gross hematuria | Changes in the bladder ([3]; after photodynamic therapy, believed due to movement or inaccurate placement of the light guide): In two of the animals there were extensive changes in the bladder | Histology of prostate ([3]; prostate removed 3 weeks following treatment, 1.0 mg/kg, 300 joules): glandular atrophy and replacement with fibrous tissue | Histologic examination of prostate around the urethra ([3]; prostates removed 48 hours following photodynamic therapy, 1.0 mg/kg, 300 joules): extensive hemmorhagic necrosis | Difference between 660 Dye and 659 YAG lasers as light source for photodynamic therapy ([4]; 200 mw/cm^2, significant difference only at the 200 Joule fluence level): no consistent significant difference | Tumor growth delay from initial to 2 times initial volume as compared to controls ([4]; 659 YAG and 660 Dye lasers, 200-400 Joules, especially at the 400 Joule level): effective in delaying tumor growth
